In series [1] the test system is HBV. Nature of the series: anti HBV activity, HepG2.117 cell line, intracellular HBV DNA by realtime PCR. Type of series: cell-based. To be noted: HepG2.117 cell line (Tet-off), 3 days of treatment, intracellular HBV DNA quantified by realtime PCR, read-out: HBV-AVE-HepG2.117 EC50. The gist of the method:
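Readout was intracellular HBV DNA by real-time PCR (HBV-specific primers and probe) after 3 days of compound exposure. Serial dilutions were tested in duplicate on HepG2.117 cells, a stable inducible HBV producer in which replication is switched on when doxycycline is absent.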

The subject of series [2] is HepG2 cells. The series is described as follows: Cytotoxicity in HepG2 cells, Resazurin assay. To be noted: read-out: TOX-HepG2-4 d CC50; HepG2 cells incubated for 4 days, viability by Resazurin assay. In general terms: Alamar Blue is a resazurin reagent that responds to reducing activity.
Series [3] is described as follows: Cytotoxicity in HepG2 cells, Resazurin assay. The settings on record: human, HepG2 cells, TOX-HepG2-4 d CC50 (μM), HepG2 cells incubated for 4 days, viability by Resazurin assay.
The mark [4] stands for this setting: Hepatitis B virus, HepG2.117, 72 h.

Usually pEC50 stands for −log10 of the EC50, conventionally taken in molar units. What is called CC50 is the concentration giving 50% cytotoxicity. For orientation: melting point means the temperature of the solid-liquid transition.

pEC50: −log10 of the molar value. Read-outs that look alike come from different tables or passages of the source.

Regarding `Cc1cccc(CC2(C)COc3c(cn(C)c3C(=O)Nc3ccc(F)c(F)c3)S(=O)(=O)N2)n1` (single isomer, unassigned) [Compound 172b, N-(3,4-difluorophenyl)-3,7-dimethyl-3-[(6-methyl-2-pyridyl)methyl]-1,1-dioxo-2,4-dihydropyrrolo[3,4-b][1,4,5]oxathiazepine-6-carboxamide], the pEC50 in series [1] was 7.19. The half-maximal cytotoxic concentration (CC50) in series [2] is more than 25000 nM.
As to `CC1C=Cc2c(cn(C)c2C(=O)Nc2ccc(F)c(F)c2)S(=O)(=O)N1` (single isomer, unassigned) [Compound 7b, N-(3,4-difluorophenyl)-3,7-dimethyl-1,1-dioxo-2,3-dihydropyrrolo-[3,4-f]thiazepine-6-carboxamide], the pEC50 in series [1] was 8.15. The CC50 in series [2] was more than 25000 nM.
Regarding `C[C@@H]1Oc2c(cn(C)c2C(=O)Nc2ccnc(Br)c2)S(=O)(=O)N[C@@H]1CO` [compound 236], in series [1], the pEC50 was 6.47. In addition, the CC50 in series [2] was more than 25000 nM.
Turning to `Cc1cccc(C2(C)COc3c(cn(C)c3C(=O)Nc3ccc(F)c(C(F)F)c3)S(=O)(=O)N2)n1` (single isomer, unassigned) [Compound 177b, N-[3-(difluoromethyl)-4-fluoro-phenyl]-3,7-dimethyl-3-(6-methyl-2-pyridyl)-1,1-dioxo-2,4-dihydropyrrolo[3,4-b][1,4,5]oxathiazepine-6-carboxamide], the pEC50 in series [1] (setting [4]) is 8.40. Further, the CC50 in series [2] was more than 25000 nM.
As for `CC(C)C(O)C1COc2c(cn(C)c2C(=O)Nc2ccc(F)c(F)c2)S(=O)(=O)N1` (single isomer, unassigned) [Compound 114b, N-(3,4-difluorophenyl)-3-(1-hydroxy-2-methyl-propyl)-7-methyl-1,1-dioxo-3,4-dihydro-2H-pyrrolo[3,4-b][1,4,5]oxathiazepine-6-carboxamide], in series [1], the pEC50 was 8.10. The CC50 in series [2] is more than 25000 nM.
`Cc1cc(CC2(C)COc3c(cn(C)c3C(=O)Nc3cc(F)c(F)c(F)c3)S(=O)(=O)N2)no1` (single isomer, unassigned) [Compound 170b, 3,7-dimethyl-3-[(5-methylisoxazol-3-yl)methyl]-1,1-dioxo-N-(3,4,5-trifluorophenyl)-2,4-dihydropyrrolo[3,4-b][1,4,5]oxathiazepine-6-carboxamide]: in series [1] (setting [4]), the pEC50 is 8.15. For the same compound, in series [2], the CC50 was more than 25000 nM.
As to `Cn1cc2c(c1C(=O)Nc1ccc(F)c(F)c1)OCC(C)(CO)NS2(=O)=O` (single isomer, unassigned) [Compound 203b, N-(3,4-difluorophenyl)-3-(hydroxymethyl)-3,7-dimethyl-1,1-dioxo-2,4-dihydropyrrolo[3,4-b][1,4,5]oxathiazepine-6-carboxamide], the pEC50 in series [1] was 7.23. In series [2], the CC50 is more than 25000 nM.
The matching figures for `CCC(O)[C@H]1COc2c(cn(C)c2C(=O)Nc2ccc(F)c(C(F)F)c2)S(=O)(=O)N1` (stereo partly drawn) [Compound 124b, (3R)—N-[3-(difluoromethyl)-4-fluoro-phenyl]-3-(1-hydroxypropyl)-7-methyl-1,1-dioxo-3,4-dihydro-2H-pyrrolo[3,4-b][1,4,5]oxathiazepine-6-carboxamide]: 8.40 and more than 25000 nM.
Consider `Cn1cc2c(c1C(=O)Nc1ccc(F)c(C(F)F)c1)CCC(C(C)(C)O)NS2(=O)=O` (single isomer, unassigned) [Compound 150b, N-[3-(difluoromethyl)-4-fluoro-phenyl]-3-(1-hydroxy-1-methyl-ethyl)-7-methyl-1,1-dioxo-2,3,4,5-tetrahydropyrrolo[3,4-f]thiazepine-6-carboxamide], for which, in series [1], the pEC50 is 8.30. For the same compound, the CC50 in series [2] is more than 25000 nM.
The corresponding values for `CC(NCC(F)(F)F)C1COc2c(cn(C)c2C(=O)Nc2ccc(F)c(C#N)c2)S(=O)(=O)N1` (single isomer, unassigned) [Compound 161d, N-(3-cyano-4-fluoro-phenyl)-7-methyl-1,1-dioxo-3-[1-(2,2,2-trifluoroethylamino)ethyl]-3,4-dihydro-2H-pyrrolo[3,4-b][1,4,5]oxathiazepine-6-carboxamide] are 7.96 and more than 25000 nM.
Regarding `CC1CCn2c(C(=O)Nc3ccc(F)c(F)c3)nc(Br)c2S(=O)(=O)N1` (stereo not shown) [compound 245], the pEC50 in series [1] is less than 4.60. Also, in series [2], the CC50 is more than 25000 nM.
The matching figures for `Cn1cc2c(c1C(=O)Nc1ccc(F)c(C#N)c1)CCC(C(C)(C)O)NS2(=O)=O` (single isomer, unassigned) [Compound 116b, N-(3-cyano-4-fluoro-phenyl)-3-(1-hydroxy-1-methyl-ethyl)-7-methyl-1,1-dioxo-2,3,4,5-tetrahydropyrrolo[3,4-f]thiazepine-6-carboxamide]: less than 6.46 and more than 25000 nM.
The matching figures for `Cn1cc2c(c1C(=O)Nc1ccc(F)c(Cl)c1)OC[C@H](C(O)C1CC1)NS2(=O)=O` (single isomer, unassigned) [Compound 207b, N-(3-chloro-4-fluoro-phenyl)-3-[cyclopropyl(hydroxy)methyl]-7-methyl-1,1-dioxo-3,4-dihydro-2H-pyrrolo[3,4-b][1,4,5]oxathiazepine-6-carboxamide]: 8.30 and more than 25000 nM.
The matching figures for `Cn1cc2c(c1C(=O)Nc1ccc(F)c(C#N)c1)CCC(C(F)(F)F)NS2(=O)=O` (single isomer, unassigned) [Compound 60b, N-(3-cyano-4-fluoro-phenyl)-7-methyl-1,1-dioxo-3-(trifluoromethyl)-2,3,4,5-tetrahydropyrrolo[3,4-f]thiazepine-6-carboxamide]: 8.30 and more than 25000 nM.
Regarding `Cn1ccc(CC2(C)COc3c(cn(C)c3C(=O)Nc3ccnc(C(F)F)c3)S(=O)(=O)N2)n1` (single isomer, unassigned) [Compound 217b, N-[2-(difluoromethyl)-4-pyridyl]-3,7-dimethyl-3-[(1-methylpyrazol-3-yl)methyl]-1,1-dioxo-2,4-dihydropyrrolo[3,4-b][1,4,5]oxathiazepine-6-carboxamide], the negative-log EC50 (pEC50) in series [1] is 7.00. For the same compound, the CC50 in series [2] was more than 25000 nM.
The corresponding values for `Cn1ccc(C2(C)COc3c(cn(C)c3C(=O)Nc3ccc(F)c(F)c3)S(=O)(=O)N2)n1` (single isomer, unassigned) [Compound 192b, N-(3,4-difluorophenyl)-3,7-dimethyl-3-(1-methylpyrazol-3-yl)-1,1-dioxo-2,4-dihydropyrrolo[3,4-b][1,4,5]oxathiazepine-6-carboxamide] are 7.62 and more than 25000 nM.
`CC(NCC(F)(F)F)C1CCc2c(cn(C)c2C(=O)Nc2cc(F)c(F)c(F)c2)S(=O)(=O)N1` (single isomer, unassigned) [Compound 218d, 7-methyl-1,1-dioxo-3-[1-(2,2,2-trifluoroethylamino)ethyl]-N-(3,4,5-trifluorophenyl)-2,3,4,5-tetrahydropyrrolo[3,4-f]thiazepine-6-carboxamide]: the pEC50 in series [1] is 7.68. In addition, the CC50 in series [2] is more than 25000 nM.
The corresponding values for `Cn1cc2c(c1C(=O)Nc1ccc(F)c(F)c1)OCC(C1CCOCC1)NS2(=O)=O` (single isomer, unassigned) [Compound 89b, N-(3,4-difluorophenyl)-7-methyl-1,1-dioxo-3-tetrahydropyran-4-yl-3,4-dihydro-2H-pyrrolo[3,4-b][1,4,5]oxathiazepine-6-carboxamide] are 7.77 and more than 25000 nM.
Consider `Cc1cc(CC2(C)COc3c(cn(C)c3C(=O)Nc3ccc(F)c(C(F)F)c3)S(=O)(=O)N2)n(C)n1` (single isomer, unassigned) [Compound 176b, N-[3-(difluoromethyl)-4-fluoro-phenyl]-3-[(2,5-dimethylpyrazol-3-yl)methyl]-3,7-dimethyl-1,1-dioxo-2,4-dihydropyrrolo[3,4-b][1,4,5]oxathiazepine-6-carboxamide], for which, in series [2], the CC50 is more than 25000 nM.
For the compound `C[C@H](O)[C@H]1C=Cc2c(cn(C)c2C(=O)Nc2ccc(F)c(C(F)F)c2)S(=O)(=O)N1` [Compound 96, (3R)—N-[3-(difluoromethyl)-4-fluoro-phenyl]-3-[(1S)-1-hydroxyethyl]-7-methyl-1,1-dioxo-2,3-dihydropyrrolo[3,4-f]thiazepine-6-carboxamide], the melting point turned out to be 182.3 °C. Moreover, in series [1] (setting [4]), the pEC50 was 8.30. Further, in series [3], the CC50 at 4 days was more than 25 µM.
The corresponding values for `C[C@H](O)[C@H]1CCc2c(cn(C)c2C(=O)Nc2ccc(F)c(C(F)F)c2F)S(=O)(=O)N1` [Compound 188, (3R)—N-[3-(difluoromethyl)-2,4-difluoro-phenyl]-3-[(1S)-1-hydroxyethyl]-7-methyl-1,1-dioxo-2,3,4,5-tetrahydropyrrolo[3,4-f]thiazepine-6-carboxamide] are 277.1 °C, 7.96 and more than 25 µM.
For `Cn1cc2c(c1C(=O)Nc1ccc(F)c(F)c1)C=CCNS2(=O)=O` [Compound 9, N-(3,4-difluorophenyl)-7-methyl-1,1-dioxo-2,3-dihydropyrrolo[3,4-f]-thiazepine-6-carboxamide], the melting point amounted to 221.9 °C. Besides, the pEC50 in series [1] (setting [4]) is 7.44. Besides, the CC50 at 4 days in series [3] is more than 25 µM.
Consider `Cn1ccnc1CC1(C)COc2c(cn(C)c2C(=O)Nc2ccc(F)c(C(F)F)c2)S(=O)(=O)N1` (stereo not shown) [Compound 187, N-[3-(difluoromethyl)-4-fluoro-phenyl]-3,7-dimethyl-3-[(1-methylimidazol-2-yl)methyl]-1,1-dioxo-2,4-dihydropyrrolo[3,4-b][1,4,5]oxathiazepine-6-carboxamide], for which the melting point was determined as 282.8 °C. For the same compound, the pEC50 in series [1] (setting [4]) was 8.52. This compound came in with a CC50 at 4 days in series [3] of more than 25 µM.

Values taken from US10875876B2, “Cyclized sulfamoylarylamide derivatives and the use thereof as medicaments for the treatment of hepatitis B” (priority 2015, dated 2020).
